Data on 2 molecules can be found in patent US7879792B2, “Synthetic peptide inhibitors of thrombin and thrombin activation of protease activated receptors 1 and 4” (The Regents of the University of Michigan, priority 2005, dated 2011).

In one data set the target is human α-thrombin (Homo sapiens, UniProt P00734). As to the kind of experiment: inhibition of α-thrombin hydrolysis of chromogenic substrate. Type of data set: biochemical. The following applies: Ki (μM) + SD, αIIa (2 nM), alpha-thrombin 2 nM, Sar-Pro-Arg-paranitroanilide.
Data set [1] is described as follows: stability testing in MES buffer (pH 6.5). Type of data set: physicochemical. The note with it: 37° C., read-out: t1/2 (min) MES Buffer (pH 6.5). The method, then:
(§1) Stability testing of the various compounds was performed in buffer, intestinal perfusate, and an intestinal homogenate preparation to assess the potential oral availability of these compounds. Initial studies prepared the tissue for stability studies. The buffer used in stability testing is 10 mM MES (pH 6.5) containing 135 mM NaCl, and 5 mM KCl. To collect intestinal perfusate from rats, male Sprague Dawley rats, 8 to 10 weeks old, weighing 250 to 350 g were fasted 15 to 18 hours with water given ad libitum. Anesthesia was administered by intramuscular injection of pentobarbital/ketamine (40 mg/kg and 80 mg/kg, respectively). The rats were placed on a warming pad under a surgical lamp to maintain body temperature and jejunal intestinal segments were exposed through a midline, abdominal incision. Approximately 20 cm segment of the jejunum (2 to 4 cm distal to the ligament of Treitz) was cannulated and the intestinal segments were perfused with 10 mM MES (pH 6.5) containing 135 mM NaCl, and 5 mM KCl at a flow-rate of 0.5 ml/min at 37° C. using a constant infusion pump (Harvard Apparatus, South Natick, Mass.). The collected perfusate was stored at −80° C. until use for ex vivo stability studies. After collection, the perfused intestinal segments were flushed with ice-cold 0.15 M KCl solution and the animal was euthanized and the jejunal intestinal segment detached. The inner intestinal tissue layers are scraped out and homogenized in MES buffer (pH 6.5) in a ratio of 1 part of intestinal tissue to 5 parts buffer. Total protein content of the perfusate and the homogenate were determined using a Biorad protein assay kit. The intestinal homogenate samples were used immediately or rapidly frozen at −80° C. until stability analysis.
The actual stability testing protocol is as follows: A 0.1 ml aliquot of the synthetic peptide solution (1 mg/ml) was added to 0.9 ml of MES buffer, pH 6.5, intestinal perfusate, or intestinal homogenate at 37° C. Samples were mixed by vortexing and 100 microliter aliquots were removed over a 60 to 90 minute period for analysis of breakdown products. […]

Data set [2] in a line: stability testing in intestinal perfusate. It is filed as in vitro ADME. The following applies: rat, 37° C. The method, then: as §1
(§2) The actual stability testing protocol is as follows: A 0.1 ml aliquot of the synthetic peptide solution (1 mg/ml) was added to 0.9 ml of MES buffer, pH 6.5, intestinal perfusate, or intestinal homogenate at 37° C. Samples were mixed by vortexing and 100 microliter aliquots were removed over a 60 to 90 minute period for analysis of breakdown products. The 100 microliter sample aliquots were diluted 10 fold with water and subjected to solid phase extraction using a Waters Oasis HLB column. Briefly, the columns were preconditioned by passing 1 ml of MeOH and 1 ml of water over the column, and 1 ml of sample was added to the column. The column was washed with 5% methanol:95% water solution to remove proteins and salts, then eluted with 1 ml of 100% methanol. The methanol was removed by vacuum, and the sample was reconstituted in mobile phase for LC/MS/MS analysis.
(§3) LC/MS/MS analysis was performed on a HP1100 HPLC (Hewlett Packard) interfaced with a Quattro II MS/MS detector (Waters/Micromass). For the HPLC separation, a 10 μL aliquot of sample in a mobile phase consisting of an equal volume mixture of acetonitrile/water containing 0.5% formic acid was injected onto a 150 mm×2.2 mm, 5 μm C8 column (Higgins Analytical Inc) and developed at a flow rate of 0.2 ml/min for 5 minutes. The MS detector was used in single ion recording mode at a cone voltage of 50 Volts.

The nature of data set [3]: stability testing in intestinal homogenate. It is filed as in vitro ADME. The following applies: rat. The method, then:
as §1, §2, §3

Data set [4] in a line: rat intestinal in situ perfusion permeability. Type of data set: in vivo. The note with it: rat. The method, then:
To determine the intestinal permeability of the various peptide analogs, male albino Sprague-Dawley rats, 9-10 weeks old and weighing 250-350 g were fasted for 18 hours with free access to water. The rats were anesthetized with an intramuscular injection of ketamine/xylazine/butorphanol (87 mg/kg, 6 mg/kg, and 0.2 mg/kg body weight, respectively). The abdomen was opened by a 4-5 cm midline incision and a 10 cm jejunal segment was cannulated on two ends and connected to a syringe pump that pumps the perfusing solution through the cannulated intestine at a constant rate and at a temperature of 37° C. The isolated segment was rinsed with 10 mM MES (pH 6.5) at a flow-rate of 0.5 ml/min in order to clean out any residual debris. Jejunal perfusion was subsequently performed with the same buffer containing 135 mM NaCl, 5 mM KCl and 0.01% PEG 4000 at a flow rate of 0.2 ml/min containing test compound, internal permeability reference standards (e.g., metoprolol) and ^14C-PEG 4000 as a non-absorbable marker for measuring water flux. After steady-state is reached within the perfused intestinal segment, typically 30 minutes after start of perfusion, samples were taken at 10 minute intervals for 1 hour. ^14C (PEG-4000) levels are assayed by scintillation counting and test compounds and internal permeability standard analysis by LC/MS/MS. Samples are frozen and stored at −80° C. until analysis.
The effective permeability (Peff) determined from the in situ perfusion is calculated from equation 1
[formula] where Q is the perfusion buffer flow rate, C′out is the outlet concentration of the compound that has been adjusted for water transport (equation 2) after passing through the intestinal segment, C′in is the inlet or starting concentration of the compound, R is the radius of the intestinal segment (set to 0.2 cm) and L is the length of the intestinal segment. To correct for water transport, a non-absorbed radioactive tracer, ^14C PEG-4000, is included in the perfusion buffer. The Cout/Cin ratio is corrected for water transport according to equation 2:
[formula] where Aout-A0 is equal to the radioactivity counts in the outlet sample minus background (dpm) and Ain-A0 is equal to the radioactivity counts in the inlet sample minus background (dpm).
In certain instances, in addition to perfusing the intestinal segment as described, plasma is drawn through a portal vein cannula to determine the amount of material entering the portal system during the perfusion. This additional experimental step can aid in determining the true intestinal permeability of unstable compounds. After steady state conditions are reached as described above, 0.5 ml aliquots of plasma are withdrawn from the portal vein at regular intervals throughout the experimental time frame. The plasma samples are deproteinated with acetonitrile and the sample is subjected to SPE and LC/MS analysis as described above. From the plasma concentration of compound, the mesenteric permeability can be determined by substitution into equation 3: Flux=A*Pe-mes*Ci 3) where Flux is equal to the portal blood flow (estimated at 1 ml/min in the rat)×the steady state mesenteric blood concentration of the peptide analogs, A is the absorptive area of the intestine (estimated at 12.56 cm^2 in the rat intestine), Pe-mes is the mesenteric Permeability (cm/sec), and Ci is the starting concentration of drug in the perfusate (ug/ml).

Read-outs that look alike come from different tables or passages of the source. Where a SMILES comes first, the peptide text is derived from it.

Take `Cc1ccc(C[C@H](NC(=O)[C@@H](C)NC(=O)[C@@H]2CCCN2C(=O)[C@@H]2C[C@@H]3CCCC[C@@H]3N2C(=O)[C@H](N)CCCN=C(N)N)C(N)=O)cc1` [rOicPaF(p-Me), D-Arg-Oic-Pro-D-Ala-Phe(p-Me)] (HELM PEPTIDE1{[dR].[O=C([C@@H]1C[C@@H]2CCCC[C@@H]2N1[*:1])[*:2]].P.[dA].[Cc1ccc(C[C@H](N[*:1])C(=O)[*:2])cc1].[am]}$$$$V2.0): the Ki on human α-thrombin lay within 6.4 to 10.6 µM. The half-life at 0.1 mg/ml stood at 363 min in data set [1]; 314 min in data set [2] (male, Sprague Dawley, intestinal (jejunal) perfusate, pH 6.5, rat, read-out: t1/2 (min) Intestinal Perfusate); 757 min in data set [3] (male, Sprague Dawley, intestinal (jejunal) homogenate, pH 6.5, 37° C., read-out: t1/2 (min) Intestinal Homogenate). In addition, the “stability in intestinal homogenate (FIG. 12)” value in data set [3] is on record as “most stable”. In addition, the Papp in data set [4] (male, Sprague-Dawley, other: in situ jejunal perfusion, pH 6.5, from portal vein plasma during perfusion, read-out: Permeability (mesenteric)) worked out at 0.309 ×10⁻⁶ cm/s; in data set [4] (male, Sprague-Dawley, other: in situ jejunal perfusion, pH 6.5, rat jejunal in situ perfusion, read-out: Permeability (in situ)) it was 1 ×10⁻⁶ cm/s.

For the molecule `C[C@@H](NC(=O)[C@@H]1CCCN1C(=O)[C@@H]1C[C@@H]2CCCC[C@@H]2N1C(=O)[C@H](N)CCCNC(=N)N)C(=O)N[C@@H](Cc1ccccc1)C(N)=O` [rOicPaF] (HELM PEPTIDE1{[dR].[O=C([C@@H]1C[C@@H]2CCCC[C@@H]2N1[*:1])[*:2]].P.[dA].F.[am]}$$$$V2.0), the half-life in data set [1] is 604 min. Moreover, the “t1/2 (min) Intestinal Perfusate” value in data set [2] is “stable”. The “stability in intestinal homogenate (FIG. 12)” value in data set [3] was “most stable”. The “t1/2 (min) Intestinal Homogenate” value in data set [3] (37° C.) is listed as “stable”. The Papp was determined as 0.139 ×10⁻⁶ cm/s in data set [4] (from portal vein plasma during perfusion, read-out: Permeability (mesenteric)) and 6.2 ×10⁻⁶ cm/s in data set [4] (rat jejunal in situ perfusion, read-out: Permeability (in situ)).

One may read the Ki as a dissociation constant, usually derived from enzyme kinetics or from competition with a known ligand.
